Test system: yeast genes (expressed mRNA)
Assay: DNA chip measurement of expressed mRNA of yeast genes after culture with a toxic chemical substance
Format: cell-based, Saccharomyces cerevisiae S288C
Conditions: for level of expressed mRNA in the presence of chemical substance / level in the absence of chemical substance: cultured two hours with the chemical substance; for The level of expressed mRNA in the presence of chemical substance/The level of expressed mRNA in the absence of chemical substance: cultured two hours with substance
Experimental: Yeast (Saccharomyces cerevisiae S288C (a SUC2mal mel gap2 CUP1)) were cultured at 25° C. on YPD medium (yeast extract 1%, polypeptone 2%, glucose 2%). One of toxic chemical substances was added to the cell at logarithmic growth phase, and the cell was further cultured for two hours. Cell was cultured without any chemical substance in the same condition, and was used as a control. Concentrations of the chemical substances were defined to inhibit the growth of the yeast but not lead to death.
After the completion of cultivation, the culture was centrifuged to collect the cells. To the cells, sodium acetate buffer (50 mM sodium acetate, 10 mM EDTA, 1% SDS) was added, and the mixture was shaken at 65° C. for five minutes, followed by returning to room temperature, and obtaining the supernatant, which procedure was repeated two times. To the supernatant, ½ amount of a solution of phenol/chloroform (1:1) was added, and the mixture was centrifuged to give a supernatant, an equal amount of chloroform was added, and the mixture was centrifuged to give a supernatant. To the supernatant, an equal amount of isopropanol containing 0.3 M sodium acetate was added, and the mixture was allowed to stand at room temperature for 30 minutes, after which the mixture was centrifuged to give sediment of the whole RNAs. Seventy % ethanol was added to the sediment, and the mixture was again centrifuged to give sediment, which was then dried and dissolved in water. mRNA was isolated from the whole RNAs as followings. In view of the fact that a poly A chain is attached to the 3′ terminus of mRNA, a polynucleotide having a poly T structure which was immobilized on the surface of latex beads was used to trap the mRNA, and then the mRNA was washed and eluted with spine column (Oligotex-dT30<Super>mRNA Purification Kit, Takara). Reverse transcription of the mRNA was conducted with a reverse transcriptase (Super Script II Reverse Transcriptase; catalogue No. 18064-014, GibcoBRL) using fluorescence-labeled nucleotides to give cDNAs that were introduced with Cy3-dUTP or Cy5-dUTP during the reverse transcription.
The labeled cDNAs were dissolved in TE buffer (10 mM Tris-HCl/1 mM EDTA, pH 8.0), and the solution was dropped on the DNA chip containing the whole genes of yeast (DNA Chip Research Inc. Japan) so that the cDNAs were hybridized on the DNA chip at 65° C. for over 12 hours. The fluoresces intensity of the DNA chip was read with a scanner, and the ratio relative to the fluorescence intensity resulting from the absence of chemical substance was estimated as the following, which is shown in Tables 1 to 9.
In the Tables, “Intensity” indicated in the rightmost column is a value of the level of expressed mRNA of each gene in control cells as divided by the average level of the expressions of the whole genes. A gene of which mRNA level is lower in control, and is higher in cases of addition of chemical substance, is especially useful in the detection of toxic substances.
Here, when a ratio of an amount of mRNA expressed in the presence of the chemical substance to an amount of mRNA expressed in the absence of the chemical substance is two or more, then it is considered significant.

SMILES: [Cl][Cd][Cl] [(2), CdCl2]
- The level of expressed mRNA in the presence of chemical substance/The level of expressed mRNA in the absence of chemical substance, yeast gene YBR036C (gene YBR036C, Metabolism protein genes, DNA chip fluorescence ratio): 1.7
- The level of expressed mRNA in the presence of chemical substance/The level of expressed mRNA in the absence of chemical substance, yeast gene YBR298C (gene YBR298C, Metabolism protein genes, DNA chip fluorescence ratio): 1.0
- The level of expressed mRNA in the presence of chemical substance/The level of expressed mRNA in the absence of chemical substance, yeast gene YDL067C (gene YDL067C (mitochondria-located protein gene), yeast cultured two hours with chemical substance, DNA chip fluorescence ratio to control): 1.0
- The level of expressed mRNA in the presence of chemical substance/The level of expressed mRNA in the absence of chemical substance, yeast gene YDL078C (gene YDL078C, Metabolism protein genes, DNA chip fluorescence ratio): 1.1
- The level of expressed mRNA in the presence of chemical substance/The level of expressed mRNA in the absence of chemical substance, yeast gene YDL215C (gene YDL215C, Metabolism protein genes, DNA chip fluorescence ratio): 1.5
- The level of expressed mRNA in the presence of chemical substance/The level of expressed mRNA in the absence of chemical substance, yeast gene YDR079W (gene YDR079W (mitochondria-located protein gene), yeast cultured two hours with chemical substance, DNA chip fluorescence ratio to control): 1.1
- The level of expressed mRNA in the presence of chemical substance/The level of expressed mRNA in the absence of chemical substance, yeast gene YDR297W (gene YDR297W, Metabolism protein genes, DNA chip fluorescence ratio): 0.8
- The level of expressed mRNA in the presence of chemical substance/The level of expressed mRNA in the absence of chemical substance, yeast gene YDR387C (gene YDR387C, Metabolism protein genes, DNA chip fluorescence ratio): 0.9
- The level of expressed mRNA in the presence of chemical substance/The level of expressed mRNA in the absence of chemical substance, yeast gene YGL035C (gene YGL035C, Metabolism protein genes, DNA chip fluorescence ratio): 1.4
- The level of expressed mRNA in the presence of chemical substance/The level of expressed mRNA in the absence of chemical substance, yeast gene YGR062C (gene YGR062C (mitochondria-located protein gene), yeast cultured two hours with chemical substance, DNA chip fluorescence ratio to control): 1.0
- The level of expressed mRNA in the presence of chemical substance/The level of expressed mRNA in the absence of chemical substance, yeast gene YGR287C (gene YGR287C, Metabolism protein genes, DNA chip fluorescence ratio): 1.0
- The level of expressed mRNA in the presence of chemical substance/The level of expressed mRNA in the absence of chemical substance, yeast gene YJL070C (gene YJL070C, Metabolism protein genes, DNA chip fluorescence ratio): 0.9
- The level of expressed mRNA in the presence of chemical substance/The level of expressed mRNA in the absence of chemical substance, yeast gene YJL096W (gene YJL096W (mitochondria-located protein gene), yeast cultured two hours with chemical substance, DNA chip fluorescence ratio to control): 1.0
- The level of expressed mRNA in the presence of chemical substance/The level of expressed mRNA in the absence of chemical substance, yeast gene YJL180C (gene YJL180C (mitochondria-located protein gene), yeast cultured two hours with chemical substance, DNA chip fluorescence ratio to control): 1.6
- The level of expressed mRNA in the presence of chemical substance/The level of expressed mRNA in the absence of chemical substance, yeast gene YKR009C (gene YKR009C, Metabolism protein genes, DNA chip fluorescence ratio): 1.2
- The level of expressed mRNA in the presence of chemical substance/The level of expressed mRNA in the absence of chemical substance, yeast gene YLR295C (gene YLR295C (mitochondria-located protein gene), yeast cultured two hours with chemical substance, DNA chip fluorescence ratio to control): 1.1
- The level of expressed mRNA in the presence of chemical substance/The level of expressed mRNA in the absence of chemical substance, yeast gene YLR351C (gene YLR351C, Metabolism protein genes, DNA chip fluorescence ratio): 1.4
- The level of expressed mRNA in the presence of chemical substance/The level of expressed mRNA in the absence of chemical substance, yeast gene YLR375W (gene YLR375W, Metabolism protein genes, DNA chip fluorescence ratio): 1.5
- The level of expressed mRNA in the presence of chemical substance/The level of expressed mRNA in the absence of chemical substance, yeast gene YMR023C (gene YMR023C (mitochondria-located protein gene), yeast cultured two hours with chemical substance, DNA chip fluorescence ratio to control): 1.3
- The level of expressed mRNA in the presence of chemical substance/The level of expressed mRNA in the absence of chemical substance, yeast gene YMR267W (gene YMR267W (mitochondria-located protein gene), yeast cultured two hours with chemical substance, DNA chip fluorescence ratio to control): 1.8
- The level of expressed mRNA in the presence of chemical substance/The level of expressed mRNA in the absence of chemical substance, yeast gene YMR267W (gene YMR267W, Metabolism protein genes, DNA chip fluorescence ratio): 1.8
- The level of expressed mRNA in the presence of chemical substance/The level of expressed mRNA in the absence of chemical substance, yeast gene YMR278W (gene YMR278W, Metabolism protein genes, DNA chip fluorescence ratio): 1.7
- The level of expressed mRNA in the presence of chemical substance/The level of expressed mRNA in the absence of chemical substance, yeast gene YMR293C (gene YMR293C, Metabolism protein genes, DNA chip fluorescence ratio): 1.5
- The level of expressed mRNA in the presence of chemical substance/The level of expressed mRNA in the absence of chemical substance, yeast gene YNL073W (gene YNL073W (mitochondria-located protein gene), yeast cultured two hours with chemical substance, DNA chip fluorescence ratio to control): 1.4
- The level of expressed mRNA in the presence of chemical substance/The level of expressed mRNA in the absence of chemical substance, yeast gene YNR072W (gene YNR072W, Metabolism protein genes, DNA chip fluorescence ratio): 1.5
- The level of expressed mRNA in the presence of chemical substance/The level of expressed mRNA in the absence of chemical substance, yeast gene YOL096C (gene YOL096C, Metabolism protein genes, DNA chip fluorescence ratio): 1.0
- The level of expressed mRNA in the presence of chemical substance/The level of expressed mRNA in the absence of chemical substance, yeast gene YOR180C (gene YOR180C, Metabolism protein genes, DNA chip fluorescence ratio): 1.1
- The level of expressed mRNA in the presence of chemical substance/The level of expressed mRNA in the absence of chemical substance, yeast gene YOR316C (gene YOR316C (mitochondria-located protein gene), yeast cultured two hours with chemical substance, DNA chip fluorescence ratio to control): 2.5
- The level of expressed mRNA in the presence of chemical substance/The level of expressed mRNA in the absence of chemical substance, yeast gene YOR363C (gene YOR363C, Metabolism protein genes, DNA chip fluorescence ratio): 2.0
- The level of expressed mRNA in the presence of chemical substance/The level of expressed mRNA in the absence of chemical substance, yeast gene YPL040C (gene YPL040C (mitochondria-located protein gene), yeast cultured two hours with chemical substance, DNA chip fluorescence ratio to control): 1.0
- The level of expressed mRNA in the presence of chemical substance/The level of expressed mRNA in the absence of chemical substance, yeast gene YPL134C (gene YPL134C (mitochondria-located protein gene), yeast cultured two hours with chemical substance, DNA chip fluorescence ratio to control): 1.0
- The level of expressed mRNA in the presence of chemical substance/The level of expressed mRNA in the absence of chemical substance, yeast gene YPR184W (gene YPR184W, Metabolism protein genes, DNA chip fluorescence ratio): 1.4
- level of expressed mRNA in the presence of chemical substance / level in the absence of chemical substance (yeast gene YAL018C): 1.9
- The level of expressed mRNA in the presence of chemical substance/The level of expressed mRNA in the absence of chemical substance (yeast gene YAL053W): 0.9
- level of expressed mRNA in the presence of chemical substance / level in the absence of chemical substance (yeast gene YAR047C): 1.7
- level of expressed mRNA in the presence of chemical substance / level in the absence of chemical substance (yeast gene YAR064W): 0.9
- level of expressed mRNA in the presence of chemical substance / level in the absence of chemical substance (yeast gene YBL044W): 2.7
- The level of expressed mRNA in the presence of chemical substance/The level of expressed mRNA in the absence of chemical substance (yeast gene YBL048W): 7.9
- The level of expressed mRNA in the presence of chemical substance/The level of expressed mRNA in the absence of chemical substance (yeast gene YBL107C): 1.1
- level of expressed mRNA in the presence of chemical substance / level in the absence of chemical substance (yeast gene YBR012C): 1.7
- level of expressed mRNA in the presence of chemical substance / level in the absence of chemical substance (yeast gene YBR066C): 1.3
- level of expressed mRNA in the presence of chemical substance / level in the absence of chemical substance (yeast gene YBR124W): 1.4
- level of expressed mRNA in the presence of chemical substance / level in the absence of chemical substance (yeast gene YBR162C): 0.5
- level of expressed mRNA in the presence of chemical substance / level in the absence of chemical substance (yeast gene YBR287W): 1.9
- level of expressed mRNA in the presence of chemical substance / level in the absence of chemical substance (yeast gene YCL042W): 2.5
- level of expressed mRNA in the presence of chemical substance / level in the absence of chemical substance (yeast gene YCL056C): 1.4
- level of expressed mRNA in the presence of chemical substance / level in the absence of chemical substance (yeast gene YCR007C): 1.6
- level of expressed mRNA in the presence of chemical substance / level in the absence of chemical substance (yeast gene YDL046W): 1.4
- The level of expressed mRNA in the presence of chemical substance/The level of expressed mRNA in the absence of chemical substance (yeast gene YDL072C): 1.1
- The level of expressed mRNA in the presence of chemical substance/The level of expressed mRNA in the absence of chemical substance (yeast gene YDL204W): 1.9
- The level of expressed mRNA in the presence of chemical substance/The level of expressed mRNA in the absence of chemical substance (yeast gene YDL222C): 1.1
- level of expressed mRNA in the presence of chemical substance / level in the absence of chemical substance (yeast gene YDR090C): 3.0

Reference: patent US20100041089A1, “IMPROVED METHOD FOR DETECTING CHEMICAL […]” (priority 2006, published 2010)
